From US20050282743A1, “Molecular interactions in cells” (Arbor Vita Corporation, priority 2001, published 2005)
Peptide text beside a SMILES is read from it. * marks the point of attachment. Biotin = O=C1N[C@H]2[C@H](CS[C@H]2CCCCC(=O)*)N1

What was measured:
Experiment in all cases: G' assay (10 uM PL peptide), results of TABLE 7 and TABLE 12
Type in all cases: binding
[1] = target: T1, PDZ protein (GST-PDZ fusion) (Homo sapiens, UniProt Q14160)
T1 construct: made in house; host or cells: E. coli (DH5alpha, BL21 or JM109)
Procedure, shortened: (§1)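 Biotin-PL peptide (N-term label), 10 uM vs GST-PDZ; protein 5 ug/ml by default. A450 nm binned: 1 = 0-1, 2 = 1-2, 3 = 2-3, 4 = 3-4, 5 = >4 on >2 repeats, 0 = no binding.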

[2] = target: T2, PDZ protein (GST-PDZ fusion) (Homo sapiens, UniProt Q12959)
T2 construct: made in house; host or cells: E. coli (DH5alpha, BL21 or JM109)
Procedure, shortened: as §1

[3] = target: T3, PDZ protein (GST-PDZ fusion) (Homo sapiens, UniProt Q15700)
T3 construct: made in house; host or cells: E. coli (DH5alpha, BL21 or JM109)
Procedure, shortened: as §1

[4] = target: T4, PDZ protein (GST-PDZ fusion) (Homo sapiens, UniProt O15018); details: PDZ AIPC, PDZ Domain 1
T4 construct: made in house; host or cells: E. coli (DH5alpha, BL21 or JM109)
Procedure, shortened: as §1

[5] = target: T5, PDZ protein (GST-PDZ fusion) (Homo sapiens, UniProt Q92796); details: PDZ NeDLG
T5 construct: made in house; host or cells: E. coli (DH5alpha, BL21 or JM109)
T5 sequence (Q92796 1-817): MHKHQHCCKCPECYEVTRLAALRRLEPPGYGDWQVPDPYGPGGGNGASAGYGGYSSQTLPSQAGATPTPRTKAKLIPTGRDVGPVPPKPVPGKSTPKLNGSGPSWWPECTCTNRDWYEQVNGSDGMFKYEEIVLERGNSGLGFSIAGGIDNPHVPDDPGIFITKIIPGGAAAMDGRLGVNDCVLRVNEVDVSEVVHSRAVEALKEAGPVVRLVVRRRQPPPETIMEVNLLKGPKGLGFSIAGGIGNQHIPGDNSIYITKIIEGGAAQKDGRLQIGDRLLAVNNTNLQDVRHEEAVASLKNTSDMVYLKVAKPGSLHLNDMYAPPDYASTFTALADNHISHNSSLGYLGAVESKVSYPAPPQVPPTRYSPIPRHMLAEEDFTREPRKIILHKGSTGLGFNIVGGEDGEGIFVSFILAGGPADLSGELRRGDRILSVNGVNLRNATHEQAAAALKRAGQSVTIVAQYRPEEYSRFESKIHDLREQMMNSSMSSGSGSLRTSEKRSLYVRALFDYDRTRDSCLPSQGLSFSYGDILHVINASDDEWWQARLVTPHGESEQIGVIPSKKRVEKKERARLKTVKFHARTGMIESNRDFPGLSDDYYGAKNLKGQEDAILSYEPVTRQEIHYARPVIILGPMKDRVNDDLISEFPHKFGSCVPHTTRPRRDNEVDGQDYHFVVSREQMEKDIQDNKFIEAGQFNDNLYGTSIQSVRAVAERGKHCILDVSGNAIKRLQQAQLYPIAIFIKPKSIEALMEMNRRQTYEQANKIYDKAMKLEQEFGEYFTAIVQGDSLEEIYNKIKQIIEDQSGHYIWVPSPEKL
Procedure, shortened: as §1

[6] = target: T6, PDZ protein (GST-PDZ fusion) (Homo sapiens, UniProt P78352)
T6 construct: made in house; host or cells: E. coli (DH5alpha, BL21 or JM109)
Procedure, shortened: as §1

[7] = target: T7, PDZ protein (GST-PDZ fusion) (Homo sapiens, UniProt O14907); details: PDZ TIP1, PDZ Domain 1
T7 construct: made in house; host or cells: E. coli (DH5alpha, BL21 or JM109)
T7 sequence (O14907 1-124): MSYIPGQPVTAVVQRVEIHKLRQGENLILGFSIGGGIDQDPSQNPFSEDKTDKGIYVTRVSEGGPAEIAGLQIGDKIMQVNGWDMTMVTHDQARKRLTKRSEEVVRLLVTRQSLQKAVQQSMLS
Procedure, shortened: as §1

[8] = target: T8, PDZ protein (GST-PDZ fusion) (Homo sapiens, UniProt Q86UL8)
T8 construct: made in house; host or cells: E. coli (DH5alpha, BL21 or JM109)
Procedure, shortened: as §1

[9] = target: T9, PDZ protein (GST-PDZ fusion) (Homo sapiens, UniProt Q8NI35); details: PDZ INADL
T9 construct: made in house; host or cells: E. coli (DH5alpha, BL21 or JM109)
Procedure, shortened: as §1

[10] = PDZ atrophin-1 interacting Protein (Atrophin-1 Inter. Prot.), PDZ Domain 1
[11] = PDZ Atrophin-1 Inter. Prot., PDZ Domain 5

T6 sequence (P78352 whole entry, the tested form may be a part): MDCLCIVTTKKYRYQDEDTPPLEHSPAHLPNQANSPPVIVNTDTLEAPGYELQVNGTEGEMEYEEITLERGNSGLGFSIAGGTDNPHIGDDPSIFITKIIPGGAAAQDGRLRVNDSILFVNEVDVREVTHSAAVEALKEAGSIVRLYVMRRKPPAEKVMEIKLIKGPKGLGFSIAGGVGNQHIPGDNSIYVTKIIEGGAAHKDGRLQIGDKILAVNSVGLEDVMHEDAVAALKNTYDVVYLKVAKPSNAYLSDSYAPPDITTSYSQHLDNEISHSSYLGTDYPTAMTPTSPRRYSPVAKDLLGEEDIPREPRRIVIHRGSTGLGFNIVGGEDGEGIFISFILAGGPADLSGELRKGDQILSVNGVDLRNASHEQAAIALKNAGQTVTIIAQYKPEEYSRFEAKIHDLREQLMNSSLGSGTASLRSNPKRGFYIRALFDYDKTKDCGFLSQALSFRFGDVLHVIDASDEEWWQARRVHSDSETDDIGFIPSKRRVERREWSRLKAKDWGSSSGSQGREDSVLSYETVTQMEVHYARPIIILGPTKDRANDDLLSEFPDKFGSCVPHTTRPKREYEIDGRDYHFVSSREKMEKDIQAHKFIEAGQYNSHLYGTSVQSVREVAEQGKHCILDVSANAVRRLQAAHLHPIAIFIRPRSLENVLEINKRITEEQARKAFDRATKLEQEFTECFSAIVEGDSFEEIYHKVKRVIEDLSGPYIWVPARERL
T3 sequence (Q15700 whole entry, the tested form may be a part): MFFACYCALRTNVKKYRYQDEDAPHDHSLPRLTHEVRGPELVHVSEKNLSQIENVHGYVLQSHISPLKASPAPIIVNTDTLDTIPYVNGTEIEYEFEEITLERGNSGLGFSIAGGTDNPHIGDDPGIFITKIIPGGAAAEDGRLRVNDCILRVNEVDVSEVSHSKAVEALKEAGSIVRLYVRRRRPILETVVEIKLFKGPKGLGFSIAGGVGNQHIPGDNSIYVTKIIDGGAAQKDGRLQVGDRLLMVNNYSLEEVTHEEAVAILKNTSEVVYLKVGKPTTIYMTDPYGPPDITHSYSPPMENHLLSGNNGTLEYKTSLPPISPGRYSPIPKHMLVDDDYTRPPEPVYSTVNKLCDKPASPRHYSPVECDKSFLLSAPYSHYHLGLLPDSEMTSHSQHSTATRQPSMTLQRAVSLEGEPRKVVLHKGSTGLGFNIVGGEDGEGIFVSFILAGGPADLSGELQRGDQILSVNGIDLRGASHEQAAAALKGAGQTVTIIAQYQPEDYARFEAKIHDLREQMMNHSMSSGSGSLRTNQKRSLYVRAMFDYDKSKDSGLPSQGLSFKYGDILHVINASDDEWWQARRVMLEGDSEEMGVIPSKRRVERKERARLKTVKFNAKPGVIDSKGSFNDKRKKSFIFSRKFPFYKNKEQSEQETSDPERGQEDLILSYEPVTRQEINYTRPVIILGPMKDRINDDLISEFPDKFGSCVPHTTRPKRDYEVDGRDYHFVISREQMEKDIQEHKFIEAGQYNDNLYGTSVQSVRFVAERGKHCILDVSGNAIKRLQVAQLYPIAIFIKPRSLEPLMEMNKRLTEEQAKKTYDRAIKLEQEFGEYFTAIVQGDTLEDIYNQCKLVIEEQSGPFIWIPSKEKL
T2 sequence (Q12959 whole entry, the tested form may be a part): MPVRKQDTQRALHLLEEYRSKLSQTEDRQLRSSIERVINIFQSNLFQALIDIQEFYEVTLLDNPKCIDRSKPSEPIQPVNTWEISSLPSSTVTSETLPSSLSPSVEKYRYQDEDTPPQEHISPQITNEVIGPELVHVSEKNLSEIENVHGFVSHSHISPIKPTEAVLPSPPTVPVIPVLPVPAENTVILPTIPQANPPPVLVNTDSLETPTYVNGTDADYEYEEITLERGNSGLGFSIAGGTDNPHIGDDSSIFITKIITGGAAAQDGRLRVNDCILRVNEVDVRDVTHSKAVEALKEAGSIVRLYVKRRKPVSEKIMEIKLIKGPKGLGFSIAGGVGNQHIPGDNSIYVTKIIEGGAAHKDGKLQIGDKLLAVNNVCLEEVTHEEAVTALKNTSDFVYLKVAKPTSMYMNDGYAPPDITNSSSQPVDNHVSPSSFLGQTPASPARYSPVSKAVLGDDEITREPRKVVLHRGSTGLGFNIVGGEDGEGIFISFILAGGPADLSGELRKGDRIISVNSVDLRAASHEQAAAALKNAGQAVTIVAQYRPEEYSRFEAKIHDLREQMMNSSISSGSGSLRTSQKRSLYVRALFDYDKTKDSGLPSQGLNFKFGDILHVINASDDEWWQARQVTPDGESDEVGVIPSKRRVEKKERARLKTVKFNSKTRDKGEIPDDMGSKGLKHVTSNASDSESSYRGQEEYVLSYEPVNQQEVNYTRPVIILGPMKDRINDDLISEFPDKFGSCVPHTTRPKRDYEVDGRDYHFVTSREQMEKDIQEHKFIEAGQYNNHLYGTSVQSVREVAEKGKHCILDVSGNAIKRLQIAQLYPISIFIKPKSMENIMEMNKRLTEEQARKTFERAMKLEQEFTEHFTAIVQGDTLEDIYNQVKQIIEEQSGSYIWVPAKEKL
T8 sequence (Q86UL8 whole entry, the tested form may be a part): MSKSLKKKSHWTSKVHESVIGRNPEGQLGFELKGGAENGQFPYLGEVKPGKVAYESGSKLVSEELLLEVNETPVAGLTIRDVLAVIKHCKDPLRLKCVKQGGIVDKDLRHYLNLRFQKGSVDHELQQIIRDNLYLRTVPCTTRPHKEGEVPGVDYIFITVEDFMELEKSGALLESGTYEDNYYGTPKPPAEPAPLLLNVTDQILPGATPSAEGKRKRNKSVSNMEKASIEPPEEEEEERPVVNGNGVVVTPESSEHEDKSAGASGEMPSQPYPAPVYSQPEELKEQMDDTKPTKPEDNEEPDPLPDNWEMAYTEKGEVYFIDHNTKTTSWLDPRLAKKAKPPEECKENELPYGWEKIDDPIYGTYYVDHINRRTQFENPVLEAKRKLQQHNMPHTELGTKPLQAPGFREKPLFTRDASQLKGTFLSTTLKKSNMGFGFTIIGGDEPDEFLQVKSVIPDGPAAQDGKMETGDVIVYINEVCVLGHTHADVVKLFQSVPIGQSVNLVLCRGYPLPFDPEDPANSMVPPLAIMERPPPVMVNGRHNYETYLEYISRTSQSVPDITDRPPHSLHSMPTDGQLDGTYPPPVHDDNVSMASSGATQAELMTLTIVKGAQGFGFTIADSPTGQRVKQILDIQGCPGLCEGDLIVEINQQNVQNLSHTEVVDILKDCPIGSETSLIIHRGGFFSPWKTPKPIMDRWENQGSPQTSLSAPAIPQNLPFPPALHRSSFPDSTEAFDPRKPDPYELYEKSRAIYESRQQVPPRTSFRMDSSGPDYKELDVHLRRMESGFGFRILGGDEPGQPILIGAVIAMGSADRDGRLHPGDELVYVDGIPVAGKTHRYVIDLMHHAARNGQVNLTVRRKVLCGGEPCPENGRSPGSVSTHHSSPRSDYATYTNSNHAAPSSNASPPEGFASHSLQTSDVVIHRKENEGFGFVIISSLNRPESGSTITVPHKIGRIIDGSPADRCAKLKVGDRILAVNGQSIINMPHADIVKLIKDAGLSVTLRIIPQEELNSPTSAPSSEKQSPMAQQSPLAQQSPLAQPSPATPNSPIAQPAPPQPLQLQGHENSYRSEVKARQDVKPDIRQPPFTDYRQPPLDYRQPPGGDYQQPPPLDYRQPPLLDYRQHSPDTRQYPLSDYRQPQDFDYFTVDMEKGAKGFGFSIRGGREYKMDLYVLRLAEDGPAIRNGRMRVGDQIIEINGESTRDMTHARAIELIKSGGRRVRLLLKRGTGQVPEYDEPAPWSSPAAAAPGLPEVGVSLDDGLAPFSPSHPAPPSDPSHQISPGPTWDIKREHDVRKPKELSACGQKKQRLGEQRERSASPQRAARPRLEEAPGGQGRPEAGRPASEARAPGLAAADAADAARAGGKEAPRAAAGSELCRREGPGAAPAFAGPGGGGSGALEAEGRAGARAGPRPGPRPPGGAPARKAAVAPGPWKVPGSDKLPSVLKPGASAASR

Molecule	Classification ([1]; PDZ KIAA0147, PDZ Domain 1)	Classification ([2]; PDZ DLG1, PDZ Domain 1, 2)	Classification ([2]; PDZ DLG1, PDZ Domain 2)	Classification ([3]; PDZ DLG2, PDZ Domain 2)	Classification [4]	Classification ([5]; PDZ Domain 1, 2)	Classification ([6]; PDZ PSD95, PDZ Domain 1, 2, 3)	Classification [7]	Classification ([2]; PDZ DLG1, PDZ Domain 1)	Classification [8, 10]	Classification ([5]; PDZ Domain 1)	Classification ([5]; PDZ Domain 2)	Classification ([5]; PDZ Domain 3)	Classification ([6]; PDZ PSD95, PDZ Domain 1)	Classification ([6]; PDZ PSD95, PDZ Domain 3)	Classification ([1]; PDZ KIAA0147, PDZ Domain 3)	Classification ([3]; PDZ DLG2, PDZ Domain 1)	Classification [8, 11]	also measured
GGGGGSGGGGGSGIESVKI [GLUR2 (glutamate receptor 2-modified)]	1 (A450 nm 0-1)	2 (A450 nm 1-2)	1 (A450 nm 0-1)	1 (A450 nm 0-1)	2 (A450 nm 1-2)	2 (A450 nm 1-2)	2 (A450 nm 1-2)	–	–	–	–	–	–	–	–	–	–	–	–
CC(C)C[C@H](NC(=O)[C@H](CCCNC(=N)N)NC(=O)CNC(=O)CNC(=O)[C@H](CCCNC(=N)N)NC(=O)[C@H](C)NC(=O)[C@@H]1CCCN1C(=O)[C@H](CCCNC(=N)N)NC(=O)CNC(=O)CNC(=O)[C@@H](NC(=O)[C@H](C)NC(=O)CCCC[C@@H]1SC[C@@H]2NC(=O)N[C@@H]21)C(C)C)C(=O)N[C@@H](CCC(N)=O)C(=O)NCC(=O)N[C@@H](CCCNC(=N)N)C(=O)N[C@@H](CCCNC(=N)N)C(=O)N[C@@H](CCC(N)=O)C(=O)N[C@H](C(=O)N[C@@H](CCC(N)=O)C(=O)N[C@H](C(=O)O)C(C)C)[C@@H](C)O [HPV E6 58 (modified)] (Biotin-AVGGRPARGGRLQGRRQTQV-OH; C-terminus assumed)	2 (A450 nm 1-2)	–	5 (A450 nm of 4 more than 2× repeated)	5 (A450 nm of 4 more than 2× repeated)	–	5 (A450 nm of 4 more than 2× repeated)	5 (A450 nm of 4 more than 2× repeated)	4 (A450 nm 3-4)	5 (A450 nm of 4 more than 2× repeated)	5 (A450 nm of 4 more than 2× repeated)	1 (A450 nm 0-1)	5 (A450 nm of 4 more than 2× repeated)	2 (A450 nm 1-2)	5 (A450 nm of 4 more than 2× repeated)	5 (A450 nm of 4 more than 2× repeated)	–	–	–	Classification ([9]; PDZ Domain 8): 4 (A450 nm 3-4)
CC(C)C[C@H](NC(=O)[C@H](C)NC(=O)[C@@H](NC(=O)[C@H](CCC(=O)O)NC(=O)[C@H](CCCNC(=N)N)NC(=O)[C@H](CCCNC(=N)N)NC(=O)CNC(=O)[C@H](CCC(N)=O)NC(=O)[C@H](CC(C)C)NC(=O)[C@H](CCCNC(=N)N)NC(=O)CNC(=O)CNC(=O)[C@H](CCCNC(=N)N)NC(=O)[C@H](C)NC(=O)[C@H](CO)NC(=O)[C@H](CCCNC(=N)N)NC(=O)CNC(=O)CNC(=O)[C@H](C)NC(=O)[C@H](C)NC(=O)CCCC[C@@H]1SC[C@@H]2NC(=O)N[C@@H]21)[C@@H](C)O)C(=O)O [HPV E6 33 (modified)] (Biotin-AAGGRSARGGRLQGRRETAL-OH; C-terminus assumed)	5 (A450 nm of 4 more than 2× repeated)	–	5 (A450 nm of 4 more than 2× repeated)	3 (A450 nm 2-3)	1 (A450 nm 0-1)	5 (A450 nm of 4 more than 2× repeated)	5 (A450 nm of 4 more than 2× repeated)	5 (A450 nm of 4 more than 2× repeated)	3 (A450 nm 2-3)	4 (A450 nm 3-4)	1 (A450 nm 0-1)	2 (A450 nm 1-2)	1 (A450 nm 0-1)	2 (A450 nm 1-2)	5 (A450 nm of 4 more than 2× repeated)	2 (A450 nm 1-2)	1 (A450 nm 0-1)	1 (A450 nm 0-1)	–
CC[C@H](C)[C@H](NC(=O)[C@H](CO)NC(=O)[C@@H](NC(=O)[C@H](Cc1ccccc1)NC(=O)[C@H](CO)NC(=O)CCCC[C@@H]1SC[C@@H]2NC(=O)N[C@@H]21)[C@@H](C)O)C(=O)N[C@@H](CC(C)C)C(=O)N[C@H](C(=O)N[C@@H](CS)C(=O)N[C@@H](Cc1c[nH]cn1)C(=O)N[C@@H](CCC(N)=O)C(=O)N[C@@H](CCCNC(=N)N)C(=O)N[C@@H](CCCNC(=N)N)C(=O)N[C@H](C(=O)N[C@@H](CCC(N)=O)C(=O)N[C@@H](CCCNC(=N)N)C(=O)N[C@@H](CCCCN)C(=O)N[C@@H](CCC(=O)O)C(=O)N[C@H](C(=O)N[C@H](C(=O)N[C@@H](C)C(=O)O)C(C)C)[C@@H](C)O)[C@@H](C)O)[C@@H](C)O [GluR5-2 (rat)]	2 (A450 nm 1-2)	5 (A450 nm of 4 more than 2× repeated)	2 (A450 nm 1-2)	1 (A450 nm 0-1)	–	5 (A450 nm of 4 more than 2× repeated)	5 (A450 nm of 4 more than 2× repeated)	–	2 (A450 nm 1-2)	–	–	1 (A450 nm 0-1)	2 (A450 nm 1-2)	3 (A450 nm 2-3)	5 (A450 nm of 4 more than 2× repeated)	–	1 (A450 nm 0-1)	–	Classification ([2]; PDZ DLG1, PDZ Domain 3): 1 (A450 nm 0-1); Classification ([8]; PDZ atrophin-1 interacting Protein, PDZ Domain 1): 1 (A450 nm 0-1)
CC[C@H](C)[C@H](NC(=O)[C@H](CCC(N)=O)NC(=O)CCCC[C@@H]1SC[C@@H]2NC(=O)N[C@@H]21)C(=O)N[C@@H](CO)C(=O)N1CCC[C@H]1C(=O)NCC(=O)NCC(=O)N[C@@H](CC(C)C)C(=O)N[C@@H](CCC(=O)O)C(=O)N1CCC[C@H]1C(=O)N1CCC[C@H]1C(=O)N[C@@H](CO)C(=O)N[C@@H](CCC(=O)O)C(=O)N[C@@H](CCCCN)C(=O)N[C@@H](Cc1c[nH]cn1)C(=O)N[C@@H](Cc1ccccc1)C(=O)N[C@@H](CCCNC(=N)N)C(=O)N[C@@H](CCC(=O)O)C(=O)N[C@H](C(=O)N[C@@H](CCC(=O)O)C(=O)N[C@H](C(=O)O)C(C)C)[C@@H](C)O [Tax]	5 (A450 nm of 4 more than 2× repeated)	–	5 (A450 nm of 4 more than 2× repeated)	5 (A450 nm of 4 more than 2× repeated)	1 (A450 nm 0-1)	–	–	–	5 (A450 nm of 4 more than 2× repeated)	5 (A450 nm of 4 more than 2× repeated)	–	5 (A450 nm of 4 more than 2× repeated)	5 (A450 nm of 4 more than 2× repeated)	5 (A450 nm of 4 more than 2× repeated)	1 (A450 nm 0-1)	1 (A450 nm 0-1)	2 (A450 nm 1-2)	3 (A450 nm 2-3)	Classification ([1]; PDZ KIAA0147, PDZ Domain 2): 5 (A450 nm of 4 more than 2× repeated); Classification ([1]; PDZ KIAA0147, PDZ Domain 4): 1 (A450 nm 0-1); Classification ([8]; PDZ atrophin-1 interacting Protein, PDZ Domain 2): 1 (A450 nm 0-1); Classification ([8]; PDZ atrophin-1 interacting Protein, PDZ Domain 3): 1 (A450 nm 0-1); Classification ([9]; PDZ Domain 3): 1 (A450 nm 0-1); Classification ([6]; PDZ PSD95, PDZ Domain 2): 1 (A450 nm 0-1)
